Laboratory results reported in patent US9598390B2, “Bicyclo[2.2.2]acid GPR120 modulators” (BRISTOL-MYERS SQUIBB COMPANY, priority 2013, dated 2017).

Target: T1, human GPR120 (Homo sapiens, UniProt Q5NUL3)
T1 construct: expressed in transfected cells; host or cells: CHOA12 cells or CHO-K1 cells, stably transfected
T1 sequence (Q5NUL3 1-361): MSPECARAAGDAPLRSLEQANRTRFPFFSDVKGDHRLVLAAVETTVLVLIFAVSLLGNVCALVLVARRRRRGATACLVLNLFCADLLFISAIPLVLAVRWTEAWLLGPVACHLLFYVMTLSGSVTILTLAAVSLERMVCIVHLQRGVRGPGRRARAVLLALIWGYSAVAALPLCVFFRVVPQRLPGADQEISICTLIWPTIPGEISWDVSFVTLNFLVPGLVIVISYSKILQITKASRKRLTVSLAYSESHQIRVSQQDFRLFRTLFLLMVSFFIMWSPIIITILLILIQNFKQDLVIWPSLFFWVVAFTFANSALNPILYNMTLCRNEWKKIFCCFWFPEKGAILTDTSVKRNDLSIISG
Assay: GPR120 pERK AlphaScreen SureFire Assay (human GPR120 pERK assay)
Type: cell-based
Settings: CHO cells stably transfected with the short form of human GPR120 receptor
Source text: GPR120 activity was monitored by measuring phosphorylation of ERK (pERK), since G protein receptors are known to activate the ERK signaling cascade either directly and/or through recruitment of arrestin that serves as a scaffold for downstream signaling events.
GPR120 pERK AlphaScreen SureFire Assay
The human and mouse GPR120-mediated intracellular phosphorylated ERK assays were established using CHOAl2 cells stably transfected with the short form of human or mouse GPR120 receptor. Cells were cultured in growth medium consisting of F-12 media (Invitrogen Cat. #11765) with 5% Charcoal/Dextran FBS (Invitrogen Cat. #12676-029), 500 μg/mL GENETICIN® (Life Technologies Cat. #10131-027) and 250 μg/mL Zeocin (Invitrogen Cat. #R250-01). Cells were cryo preserved at a concentration of 2×10^7 cells/mL, in 90% Charcoal/Dextran FBS and 10% DMSO, and frozen in liquid nitrogen at a low passage number.
For the pERK assay, 2×10^7 cells/mL cryopreserved human and mouse cells were thawed rapidly in a 37° C. water bath and added to a T-225 flask containing 50 mL growth medium. The flasks were placed in a tissue culture incubator overnight (37° C., 5% CO2). The next day, cells were harvested with trypsin (Gibco Cat. #25300-054), resuspended in serum-containing growth medium and counted using a Cellometer and volume adjusted to a concentration of 0.6×10^6cells/mL. Cells were plated into 384-well clear bottom tissue culture plates (BD Cat. #353962) at 50 μL/well, for a density of 30,000 cells/well using a MULTIDROP® and incubated for 16-18 hours (overnight) at 37° C. with 5% CO2. The next day, cells were serum starved in 30 μL of F-12 media without any serum or antibiotics for 2 hours at 37° C.
Test compounds were 3-fold, 11-point serially diluted in DMSO in a REMP assay plate (Matrix Cat. #4307) by Tecan and 5 μL was transferred into an ECHO source plate (Labcyte Cat. #LC-0200). Cells were then stimulated with 50 nL of compound dilutions using ECHO liquid handler for 7 minutes at 37° C. Compounds ranged from final assay concentrations of 33.33 μM to 0.56 nM.
The media was then dumped and cells lysed with 20 μL of 1× Lysis buffer from the AlphaScreen SureFire Phospho-ERK 1/2 Kit (Perkin Elmer Cat. #6760617M). The lysis buffer was diluted 5-fold with water before use. The plate was agitated on a shaker for 10 minutes after which 2 μL was transferred into a 384-well white proxiplate (Perkin Elmer Cat. #6008289). The SureFire assay reagent mix was prepared by mixing 60 parts Reaction Buffer, 10 parts Activation Buffer, 1 part Donor Beads, 1 part Acceptor Beads (Perkin Elmer Cat. #TGRES10K). 3.5 μL/well of this reagent mix was manually added to the proxiplate with a multichannel pipettor. Plates were spun down at 1000 rpm for 2 minutes, followed by light-protected incubation at room temperature for 2 hours. The plates were read on the Alpha-technology compatible Envision multilabel plate reader using AlphaScreen protocol according to manufacturer's specifications. The agonist effect of compounds was expressed as 100×(average sample-average blank)/(average total−average blank) where sample is the luminescence activity in the presence of test compound, blank is equal to the luminescence activity in the presence of DMSO control and the total is signal induced by 50 μM linolenic acid as reference compound. Activation data for the test compound over a range of concentrations was plotted as percentage activation of the test compound (100%=maximum response). After correcting for background, EC50 values were determined. The EC50 is defined as the concentration of test compound which produces 50% of the maximal response and was quantified using the 4 parameter logistic equation to fit the data.
The human and mouse GPR120-mediated intracellular phosphorylated ERK assays were also established using CHO-K1 cells stably transfected with the short form of human or mouse GPR120 receptor. […]

CC1(C)Cc2cc(Cl)cc(COC34CCC(CCC(=O)O)(CC3)CC4)c2O1 [Example 1, 3-(4-((5-Chloro-2,2-dimethyl-2,3-dihydrobenzofuran-7-yl)methoxy)bicyclo[2.2.2]octan-1-yl)propanoic acid]
EC50: 610 nM

CC1(C)Cc2cc(Cl)cc(COC34CCC(CCCC(=O)O)(CC3)CC4)c2O1 [Example 2, 4-(4-((5-Chloro-2,2-dimethyl-2,3-dihydrobenzofuran-7-yl)methoxy)bicyclo[2.2.2]octan-1-yl)butanoic acid]
EC50: 2470 nM

N#Cc1cccc(OC23CCC(CCCC(=O)O)(CC2)CC3)c1 [Example 3, 4-(4-(3-Cyanophenoxy)bicyclo[2.2.2]octan-1-yl)butanoic acid]
EC50: 1110 nM

Cc1cc(COC23CCC(CCC(=O)O)(CC2)CC3)n(-c2ccc(Cl)cc2)n1 [Example 4, 3-(4-((1-(4-Chlorophenyl)-3-methyl-1H-pyrazol-5-yl)methoxy)bicyclo[2.2.2]octan-1-yl)propanoic acid]
EC50: 2740 nM

O=C(O)CCC12CCC(OCc3cccc(Oc4ccccc4)c3)(CC1)CC2 [Example 5, 3-(4-(3-Phenoxy-benzyloxy)bicyclo[2.2.2]octan-1-yl)propanoic acid]
EC50: 430 nM

O=C(O)CCC12CCC(OCc3ccccc3Oc3ccccc3)(CC1)CC2 [Example 6, 3-(4-(2-Phenoxy-benzyloxy)bicyclo[2.2.2]octan-1-yl)propanoic acid]
EC50: 400 nM

COc1cccc(COC23CCC(CCCC(=O)O)(CC2)CC3)c1 [Example 7, 4-(4-(3-Methoxy-benzyloxy)bicyclo[2.2.2]octan-1-yl)butanoic acid]
EC50: 6910 nM

O=C(O)CCC12CCC(OCc3cc(F)cc(Oc4ccccc4)c3)(CC1)CC2 [Example 8, 3-(4-(3-Fluoro-5-phenoxy-benzyloxy)bicyclo [2.2.2]octan-1-yl)propanoic acid]
EC50: 270 nM

O=C(O)CCC12CCC(OCc3cc(F)ccc3Oc3ccccc3)(CC1)CC2 [Example 9, 3-(4-(5-Fluoro-2-phenoxybenzyloxy)bicyclo[2.2.2]octan-1-yl)propanoic acid]
EC50: 280 nM

O=C(O)COCC12CCC(OCc3cccc(Oc4ccccc4)c3)(CC1)CC2 [Example 10, 2-((4-(3-Phenoxybenzyloxy)bicyclo[2.2.2]octan-1-yl)methoxy)acetic acid]
EC50: 680 nM

CC(C)Oc1cc(F)cc(COC23CCC(CCC(=O)O)(CC2)CC3)c1 [Example 11, 3-(4-(3-Fluoro-5-isopropoxybenzyloxy)bicyclo[2.2.2]octan-1-yl)propanoic acid]
EC50: 870 nM

O=C(O)CCC12CCC(OCc3cc(F)cc(Oc4ccc(F)cc4)c3)(CC1)CC2 [Example 12, 3-(4-(3-Fluoro-5-(4-fluorophenoxy)benzyloxy)bicyclo[2.2.2]octan-1-yl)propanoic acid]
EC50: 540 nM

CC1(C)Cc2cc(Cl)cc(OCC34CCC(/C=C/C(=O)O)(CC3)CC4)c2O1 [Example 13, (E)-3-(4-(((5-Chloro-2,2-dimethyl-2,3-dihydrobenzofuran-7-yl)oxy)methyl)bicyclo[2.2.2]octan-1-yl)acrylic acid]
EC50: 2690 nM

CC1(C)Cc2cccc(OCC34CCC(CCC(=O)O)(CC3)CC4)c2O1 [Example 14, 3-(4-(((2,2-Dimethyl-2,3-dihydrobenzofuran-7-yl)oxy)methyl)bicyclo[2.2.2]octan-1-yl)propanoic acid]
EC50: 900 nM

CC1(C)Cc2cc(Cl)cc(OCC34CCC(CCC(=O)O)(CC3)CC4)c2O1 [Example 15, 3-(4-(((5-Chloro-2,2-dimethyl-2,3-dihydrobenzofuran-7-yl)oxy)methyl)bicyclo[2.2.2]octan-1-yl)propanoic acid]
EC50: 1340 nM
